In ChEMBL document CHEMBL3507680, “University of Dundee, Gates Library screen for HepG2 cell viability” one finds cytotoxicity data, which are given here for 98 compounds.

The structures appear in SMILES notation.

This data set in a line: Human HepG2 cell viability assay in 384 well format. The format is toxicity, cell-based. Also on record: dose 125 nL, time 70.5 hour; concentration not given beside the values. The conditions noted are these: HepG2 cells, read-out: Inhibition.
For the compound `Cc1ccc(CC(=O)N(C)CC2(O)CCCN(c3ccccn3)C2)s1` (stereo not drawn), the cytotoxicity at 70.5 h was -5.95%.

With `CCC[C@H]1CN(S(C)(=O)=O)C[C@@H]1NC(=O)Cc1ccc(OC)cc1`, the cytotoxicity at 70.5 h is 9.24%.

Turning to `c1cncc(OC[C@@]23CCO[C@@H]2CCN(Cc2cccs2)C3)c1`, the cytotoxicity at 70.5 h is -100%.

Take `COCC1CN(S(=O)(=O)C2CC2)Cc2ncn(CC3CC3)c21` (stereo not drawn): the cytotoxicity at 70.5 h is -1.47%.

For `COc1cccc(CN2CC[C@H](c3nnc(C)o3)C2)c1`, the cytotoxicity at 70.5 h was determined as 2.22%. As for `CC(NC(=O)N1CCNC(=O)CC1)c1ccc(OC(F)F)cc1` (stereo not drawn), the figure is -8.12%; as for `Cc1cc(Oc2ccccc2F)nc(C2CCCCN2)n1` (stereo not drawn), -6.21%; as for `Cc1nnc(N2C[C@H](OCc3cccnc3)[C@H]3OCCC[C@H]32)s1`, 10%. The value for `CN(C)S(=O)(=O)N1C[C@H]2C[C@H](C(=O)Nc3cccnc3)[C@@H](C1)O2` was -8.64%; that for `CN(C(=O)c1ccc(C#N)cc1)C1CCN(c2ccccn2)CC1` was 12.7%. As to `CCc1cc(N[C@H]2CCC[C@H]2CO)n2nccc2n1`, the cytotoxicity at 70.5 h came out at 6%. The value for `CC(C)N(C)Cc1cn2c(n1)CN(C(=O)Cc1ccccc1)CC2` was -2.24%. For the compound `Cn1cc(C2CCCN2Cc2csc(-c3ccccc3)n2)cn1` (stereo not drawn), the cytotoxicity at 70.5 h is -7.14%. The value for `Cc1ncn(CCNC(=O)Nc2ccccc2)c(=O)c1C` was 21.4%; that for `COc1cccc(COCC(O)CN2CC(n3cccn3)C2)c1` (stereo not drawn) was -6.05%.

Turning to `O=C1NCCCCC1SCc1coc(-c2ccc(F)cc2)n1` (stereo not drawn), the cytotoxicity at 70.5 h came out at 20.1%.

As for `CCOC[C@@H]1CCC[C@@]12CN(Cc1cccnc1)CCO2`, the cytotoxicity at 70.5 h is -5.78%.

As to `Cc1cc(C)c(C(=O)N2CCCC(C(=O)CCc3ccccc3)C2)cn1` (stereo not drawn), the cytotoxicity at 70.5 h is -3.58%. The value for `CC(=O)N1CCn2c(COCc3csc(C)n3)cnc2C1C` (stereo not drawn) was -20.1%; that for `Cn1cc(C(=O)N2CCCC(n3cncn3)C2)ccc1=O` (stereo not drawn) was -9.74%. As for `O=S1(=O)CCN2C(=N1)Oc1ccc(S(=O)(=O)N3CCCC3)cc12`, the figure is -5.8%. The value for `O=C(c1cc(-n2cnnn2)ccc1Cl)N1CCCCCC1` was -2.04%. As for `CCNC(=O)N1C[C@@H]2OCC(=O)N(C(C)C)[C@@H]2C1`, the cytotoxicity at 70.5 h is -0.389%. In the case of `Cc1ccc2oc(CN3CCC(C(=O)O)(n4ccnc4)CC3)c(C)c2c1`, the cytotoxicity at 70.5 h is -16.8%.

Regarding `O=C(c1ccc[nH]1)N1CCc2c(COCc3ccncc3)cncc2C1`, the cytotoxicity at 70.5 h was -3.15%. With `CN(C)C(=O)c1cc(-c2cnc(N)nc2)nc2cc(F)ccc12`, the cytotoxicity at 70.5 h is -2.39%. The value for `CCCn1cc(-c2ccnc(NC3CCc4ccccc43)n2)c(C)n1` (stereo not drawn) was 4.9%; that for `Cc1nc(C2CCCN(C(=O)Cn3ccccc3=O)C2)sc1C` (stereo not drawn) was -2.49%; that for `Cc1ccc(-c2cc(N)c(=O)n(CC(=O)NC3CCCCC3)n2)s1` was -17.9%. Regarding `O=C(Nc1ccc2c(c1)OCO2)Nc1cnn(C2CCOCC2)c1`, the cytotoxicity at 70.5 h is -0.609%. With `CC(NC(=O)c1cccc(CCC(C)(C)O)c1)c1nnc(N)s1` (stereo not drawn), the cytotoxicity at 70.5 h was 30.7%. The value for `CN(C)C(=O)[C@H]1C[C@H]2OCC[C@H]2N(Cc2ccccn2)C1` was -2.93%; that for `COc1ncccc1CNC(=O)Nc1cccnc1N1CCCC1` was 5.6%. As for `c1c2c(nn1CC1CC1)C(CNC1CCOCC1)OCC2` (stereo not drawn), the figure is -11.6%. The value for `Cc1ccc(-c2nc(C(=O)NCC3CCOC3)cs2)cc1` (stereo not drawn) was -15.2%; that for `CCCn1[nH]c(CNc2cccc(Cl)c2)nc1=O` was -15.4%; that for `COCCN1CC[C@@H](O)[C@@H]1Cc1ccccc1` was -16.9%. Take `Cc1ccc(NC(=O)c2ccc(CC3CC(=O)NC3=O)cc2)cc1O` (stereo not drawn): the cytotoxicity at 70.5 h is -2.83%. As for `Cc1ccsc1CN1CC2(CCN(C(=O)C3CC3)CC2)CC1C(=O)O` (stereo not drawn), the figure is 10.8%.

Take `O=C1CC(NCc2ccncc2)CN1Cc1cccc(F)c1` (stereo not drawn): the cytotoxicity at 70.5 h was 1.94%. Take `O=C(Cn1cc(C2CC2)nn1)NC(c1cc(F)ccc1F)C1CC1` (stereo not drawn): the cytotoxicity at 70.5 h was -5.37%. As for `CC(=O)c1ccc(CN2CCCC23CCN(c2ccccn2)CC3)cc1`, the figure is -25.1%. Consider `CCC(C)(C)NC(=O)c1ccc(NC(=O)NCc2cc(C)no2)cc1`, for which the cytotoxicity at 70.5 h was -0.597%. As to `Cc1ccc(C2(CN3CCCC3)CCNCC2)nc1`, the cytotoxicity at 70.5 h was -9.4%. Take `O=C1CNc2ncnc(Nc3cnn(Cc4ccccc4F)c3)c2N1`: the cytotoxicity at 70.5 h came to 27.9%. For `CN(Cc1ccccc1F)C(=O)CS(=O)(=O)Cc1ccc(Cl)c(Cl)c1`, the cytotoxicity at 70.5 h is -19%. As for `COCC1CCN(C(=O)c2cn(Cc3ccccc3C(F)(F)F)nn2)C1` (stereo not drawn), the cytotoxicity at 70.5 h is -21.7%.

Take `COc1ccc(-c2nc(CN3CC(n4nc(C)cc4C)C3)no2)cc1`: the cytotoxicity at 70.5 h is -5.57%.

As to `COc1ccc(OCCN(C)S(=O)(=O)c2cnn(C)c2)cc1`, the cytotoxicity at 70.5 h is -6.09%. As for `CN(Cc1cccnc1)C[C@@H]1OC[C@H]2CN(Cc3ccoc3)CC[C@H]21`, the figure is -0.956%; as for `COCC(=O)N1C[C@@H](c2cccc(OC)c2)[C@@]2(CCCCC(=O)N2)C1`, -10.3%; as for `Cc1nc(Cn2c3c(ccc2=O)CCN(CC2CCC2)CC3)cs1`, -9.15%. As for `CC1CCN(S(=O)(=O)N2CCCN(CC3CCCO3)CC2)CC1` (stereo not drawn), the figure is 13.3%. As for `COc1cccc(N2C(=O)CC3(CCCNC3)C2=O)c1` (stereo not drawn), the figure is -5.35%; as for `O=C(c1ccco1)N1C[C@@H]2CN(c3ccccn3)C[C@@H]2C1`, -0.814%; as for `CC(=O)N(C)C1CCN(C(=O)NCCc2cc(F)ccc2F)CC1`, -13.7%. As to `OCCN(Cc1ccccc1)Cc1ccsc1`, the cytotoxicity at 70.5 h is -9.98%.

`OC1(CNCCSc2ccccn2)CCCNC1` (stereo not drawn): the cytotoxicity at 70.5 h was -6.54%. `Cn1cccc1C(=O)COc1ccc(S(N)(=O)=O)cc1`: the cytotoxicity at 70.5 h was found to be 0.32%. As for `CCNC(=O)COc1ccc(C(=O)NC(C)CCc2ccco2)cc1` (stereo not drawn), the figure is 2.41%; as for `CN(C)C(=O)C1OC2(CCN(C(=O)N(C)C)CC2)c2ccccc21` (stereo not drawn), -19.3%.

Consider `Cc1n[nH]c2c1C(c1ccc3c(c1)OCCO3)SCC(=O)N2` (stereo not drawn), for which the cytotoxicity at 70.5 h was -0.607%. As for `CC(C)OCCOCc1cccc(NC(=O)N2CCCC(O)C2)c1` (stereo not drawn), the figure is -9.87%. The value for `CCC[C@@H](NC(N)=O)C(=O)N1CCc2ccccc2CC1` was -3.57%; that for `CCCc1nc(NCCCn2cccn2)c2c(n1)c(C)nn2CC` was -4.19%; that for `O=C(C1CCOCC1)N1CCO[C@H]2[C@H](Oc3cccnc3)CC[C@@H]21` was -3.29%. Take `NCCn1nc(C2CCN(C(=O)CC3CCCCC3)C2)c2nccnc21` (stereo not drawn): the cytotoxicity at 70.5 h was -7.33%. The value for `CCC(=O)N1CCC(NCc2cc(C(F)(F)F)ccc2Cl)C1` (stereo not drawn) was -4.4%; that for `CC1CCCCN1C(=O)c1ccc2c(c1)OCCCO2` (stereo not drawn) was 10.5%; that for `Cc1cncc(C(=O)N2CCNCC2C(=O)NCc2ccncc2)c1` (stereo not drawn) was -1.53%.

As for `NC(=O)CCn1cc(CNCCCc2csc(N)n2)c2ccccc21`, the cytotoxicity at 70.5 h was -6.3%. The value for `CCn1ncnc1C(C)NC(=O)Cc1cc2c(cc1Cl)OCCO2` (stereo not drawn) was 1.43%. In the case of `Cc1nn(C)c(C)c1S(=O)(=O)NCCn1ccc(-c2cccs2)n1`, the cytotoxicity at 70.5 h was -0.512%. The value for `CCCNC(=O)c1cc(-c2ccn(C(C)C)n2)n2ccccc12` was -7.13%; that for `O=C(NCC[S+]([O-])Cc1ccccc1)c1ccc2[nH]c(=O)[nH]c2c1` (stereo not drawn) was -3.54%; that for `c1cncc(-c2c[nH]c([C@@H]3COCCN3Cc3ccncc3)n2)c1` was 1.27%.

Consider `Cc1ccc(NC2CCN(C(=O)COc3cccc(F)c3)CC2)nn1`, for which the cytotoxicity at 70.5 h was found to be 43.9%. For the compound `CC(=O)Nc1ncc(S(=O)(=O)Nc2ccc(F)cc2F)s1`, the cytotoxicity at 70.5 h was -0.452%. As to `COC(=O)C(c1cc(F)ccc1F)N(C)C(=O)c1cccnc1O` (stereo not drawn), the cytotoxicity at 70.5 h was 0.116%. The value for `Cc1cccc(-c2noc([C@@H]3C[C@@H](O)CN3C)n2)c1` was 3.3%; that for `COc1ccc(S(=O)(=O)N2CCOC[C@H](Oc3cnccn3)C2)cc1` was -0.146%.

For `CCc1ncnc2c1CCN(C(=O)Cc1ccccn1)CC2`, the cytotoxicity at 70.5 h was -19.9%. The value for `Cc1nsc(NC(=O)NC2CCCN(C)C2)n1` (stereo not drawn) was 29.6%; that for `CSCc1noc(CNC(=O)C2CCN(C(=O)C3CC3)CC2)n1` was -17.4%. As for `CC(=O)N1Cc2ccccc2CC1C(=O)Nc1cc(C)ccn1` (stereo not drawn), the figure is -15.2%; as for `COc1cc(NC(=O)NCc2cc(C)oc2C)cc(OC)c1`, -5.36%; as for `N#Cc1ccc(N2CCCC2Cn2cccn2)nc1` (stereo not drawn), -8.46%. For `COc1cc(C)ccc1S(=O)(=O)N1CC[C@](C)(O)[C@H](C)C1`, the cytotoxicity at 70.5 h is -5.97%. As for `CC(C)CNC(=O)Cc1cnc(-n2cccc2)s1`, the figure is -18.5%. With `Cc1ccc(NC(=O)N2CCC(CO)(Nc3ccccc3)CC2)cc1`, the cytotoxicity at 70.5 h turned out to be 17.1%. On to `Cc1nn(C)c(N2CCOCC2)c1CNC(c1cccs1)C(C)C` (stereo not drawn), for which the cytotoxicity at 70.5 h came to 6.88%.

For `CCN1CCn2nc(CCC(=O)N3CCCC3)cc2C1`, the cytotoxicity at 70.5 h was -4.63%. As for `CCCc1cc(NCCC2CCCOC2)n2nccc2n1` (stereo not drawn), the figure is 14.3%. With `Cc1cc(C(C)(O)CNC(=O)C2(C)CCCC2)c(C)o1` (stereo not drawn), the cytotoxicity at 70.5 h is -0.0569%.

Turning to `Cc1noc(C)c1CNC(=O)Nc1ccc(N2CCOC(C)C2)cc1` (stereo not drawn), the cytotoxicity at 70.5 h is -13.8%. The value for `COc1cccc(CN(C)Cc2nc3cc(C)ccc3[nH]2)c1O` was -2.34%; that for `COCC(=O)NCc1cc(=O)n2c(n1)CN(Cc1ccccc1)CCC2` was 2.31%; that for `CC(=O)Nc1nc(SCc2ccc3c(c2)OCO3)ns1` was -6.56%.
